As usually defined, the pKd is the Kd on a negative log10 scale, so that one unit is a factor of ten. Lower therefore signals a large Kd. One may read the pEC50 as −log10 of the EC50, conventionally taken in molar units. Read a high pEC50 as a low EC50.

Molecules are shown by their SMILES. pEC50, pKd: −log10 of the molar value.

Kd and EC50 data for six compounds are collected here from BindingDB's records for doi:10.1021/cb800162x (Yale University, 2008).

Test [1] has as its target T1, Heat shock protein HSP 90-beta (Homo sapiens, UniProt P08238). Put plainly: AlphaScreen Assay. An excerpt:
AlphaScreen technology based high-throughput (ALPHA) assay is used to identify inhibitors of Hsp90-TPR2A interaction.
On the technique in general: Alpha assays give light when donor and acceptor beads are brought close together.

Test [2] deals with T1, Heat shock protein HSP 90-beta. Put plainly: Cell Proliferation Assay. The following applies: 37 °C. An excerpt:
Cell assay using BT474, SKBR3 and MCF-12F cell lines measured by WST-1 colorimetric cell proliferation assay.

T1 sequence (P08238 whole entry): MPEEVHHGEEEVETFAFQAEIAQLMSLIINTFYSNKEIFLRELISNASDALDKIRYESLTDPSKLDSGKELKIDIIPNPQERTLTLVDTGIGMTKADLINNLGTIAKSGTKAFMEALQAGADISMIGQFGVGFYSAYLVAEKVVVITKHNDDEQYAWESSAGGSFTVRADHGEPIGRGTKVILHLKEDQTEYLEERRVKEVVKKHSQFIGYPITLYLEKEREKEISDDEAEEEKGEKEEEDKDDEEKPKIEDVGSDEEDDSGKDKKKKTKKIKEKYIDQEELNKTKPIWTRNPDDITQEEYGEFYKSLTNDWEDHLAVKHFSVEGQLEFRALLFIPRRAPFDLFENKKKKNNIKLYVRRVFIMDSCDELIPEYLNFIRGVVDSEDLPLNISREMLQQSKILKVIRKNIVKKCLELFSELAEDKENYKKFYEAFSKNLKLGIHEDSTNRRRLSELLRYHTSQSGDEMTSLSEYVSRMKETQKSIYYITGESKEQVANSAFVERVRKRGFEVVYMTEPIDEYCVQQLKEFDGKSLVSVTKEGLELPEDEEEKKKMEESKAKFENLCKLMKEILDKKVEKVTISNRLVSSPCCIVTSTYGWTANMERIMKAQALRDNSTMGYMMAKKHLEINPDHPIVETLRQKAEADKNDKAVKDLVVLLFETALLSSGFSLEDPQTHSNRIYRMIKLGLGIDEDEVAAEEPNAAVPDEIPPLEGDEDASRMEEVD

`CCn1nc(Cc2ccccc2)nc2c(=O)n(C)c(=O)nc1-2` [3-benzyl-1-ethyl-6-methyl-1H,5H,6H,7H-pyrimido[5,4-e][1,2,4]triazine-5,7-dione, 13] had a negative-log Kd (pKd) in test [1] of 6.74. The compound further showed a negative logarithm of the EC50 (pEC50) in test [2] of 5.37.
For `Cn1nc(-c2ccccc2)nc2c(=O)n(C)c(=O)nc1-2` [1,6-dimethyl-3-phenyl-1H,5H,6H,7H-pyrimido[5,4-e][1,2,4]triazine-5,7-dione, 10], in that order: 6.23 and 6.16.
The corresponding values for `CCCc1nc2c(=O)n(C)c(=O)nc-2n(C)n1` [1,6-dimethyl-3-propyl-pyrimido[5,4-e][1,2,4]triazine-5,7-dione] are 6.38 and 6.04.
In the case of `CCn1nc(-c2ccccc2)nc2c(=O)n(C)c(=O)nc1-2` [1-Ethyl-6-methyl-3-phenyl-1H-pyrimido[5,4-e][1,2,4]triazine-5,7-dione], in test [1], the pKd is 6.44. Also, the pEC50 in test [2] was 5.76.
On to `Cc1nc2c(=O)n(C)c(=O)nc-2n(C)n1` [1,3,6-Trimethyl-1H-pyrimido[5,4-e][1,2,4]triazine-5,7-dione], for which the negative logarithm of the Kd (pKd) in test [1] is 6.31. In test [2], this compound showed a pEC50 of 6.02.
For `CCn1nc(-c2cccs2)nc2c(=O)n(C)c(=O)nc1-2` [1-ethyl-6-methyl-3-thiophen-2-yl-pyrimido[5,4-e][1,2,4]triazine-5,7-dione], in that order: 6.44 and 5.92.
